This is an account of results in patent US11419918B2, “Treatment of biliary cirrhosis based on oxyntomodulin analogue GLP-1R/GCGR dual-target agonist peptide” (Shenzhen Turier Biotech Co., Ltd., priority 2017, dated 2022).

Numbered stars: 1 amine (or outer) side, 2 acyl side, 3 side chain; on linkers, the order of the positions; unused ones are H or OH. Square brackets hold non-standard residues; d marks the D form. Primed or numbered codes have the meaning given here. Side chains are listed from the residue outwards. Ends that are not written are not given here. * marks the point of attachment. C18 diacid = O=C(O)CCCCCCCCCCCCCCCCC(=O)*; C16 diacid = O=C(O)CCCCCCCCCCCCCCC(=O)*; γGlu = O=C(O)[C@H](CCC(=O)[*:2])N[*:1]; Stearoyl = CCCCCCCCCCCCCCCCCC(=O)*; Palmitoyl = CCCCCCCCCCCCCCCC(=O)*; Nle = CCCC[C@H](N)C(=O)O; PEG2′ = not defined here; Aib = CC(C)(N)C(=O)O

For this assay, the system named is human hepatic stellate cells (LX-2). Nature of the assay: In vitro inhibition of hepatic fibrosis: expression of activation marker α-SMA in LX-2 cells (Western Blot, β-actin internal reference). Type of assay: cell-based. Particulars: 10.0 μM, 48 hours, negative control (PBS) = 100%. The procedure:
Hepatic stellate cell strain LX-2 was selected to study and observe the effect of different doses of test substances on the expression of LX-2 cell activation marker α-SMA. Hepatic stellate cell LX-2 was laid on 35 mm cell culture plate, cultured with DMEM (high glucose)+10% FBS+1% double-antibody culture medium (Thermo Fisher), placed overnight when the cells grew to 70% convergence at 37° C. and under the condition of 5% CO2, and treated with the above GLP-1R/GCGR dual target agonist polypeptides 1-48 (dissolved in PBS) for 48 hours the next day morning to extract cell protein, carry out Western Blot, and take β-actin as internal reference and analyze the expression quantities of α-SMA and β-actin by a gray level of Image J 1.50i. PBS with the same volume as that in experimental group was added in negative control. […] The integrating gray level of α-SMA/β-actin in the negative control group was 100% to analyze the in vitro inhibition activity of hepatic fibrosis of tested polypeptide.
For orientation: In western blotting, separated proteins are transferred to a membrane and probed.
As to “His-(D-Ser)-Gln-Gly-Thr-Phe-Thr-Ser-Asp-Tyr-Ser-Lys-Tyr-Leu-Asp-Glu-Lys-Ala-Ala-Lys(PEG2-PEG2-γGlu-CO(CH2)14CH3)-Glu-Phe-Ile-Glu-Trp-Leu-Leu-Asn-Gly-Gly-Pro-Ser-Ser-Gly-Ala-Pro-Pro-Pro-Ser-NH2 (H[dS]QGTFTSDYSKYLDEKAAK([PEG2′-PEG2′-γGlu-Palmitoyl])EFIEWLLNGGPSSGAPPPS-NH2) [Compound 29]”, the “Relative expression of α-SMA (α-SMA/β-actin, %)” value was found to be 49.36%.

As for “His-(D-Ser)-Gln-Gly-Thr-Phe-Thr-Ser-Asp-Tyr-Ser-Lys-Tyr-Leu-Asp-Glu-Lys-Ala-Ala-Lys(PEG2-PEG2-γGlu-CO(CH2)14CO2H)-Glu-Phe-Ile-Glu-Trp-Leu-Leu-Asn-Gly-Gly-Pro-Ser-Ser-Gly-Ala-Pro-Pro-Pro-Ser-NH2 (H[dS]QGTFTSDYSKYLDEKAAK([PEG2′-PEG2′-γGlu-C16 diacid])EFIEWLLNGGPSSGAPPPS-NH2) [Compound 27]”, the “Relative expression of α-SMA (α-SMA/β-actin, %)” value came to 32.34%. Take “His-(D-Ser)-Gln-Gly-Thr-Phe-Thr-Ser-Asp-Tyr-Ser-Lys-Tyr-Leu-Asp-Glu-Lys-Ala-Ala-Lys(PEG2-PEG2-γGlu-CO(CH2)16CH3)-Glu-Phe-Ile-Glu-Trp-Leu-Leu-Arg-Ala-NH2 (H[dS]QGTFTSDYSKYLDEKAAK([PEG2′-PEG2′-γGlu-Stearoyl])EFIEWLLRA-NH2) [Compound 24]”: the “Relative expression of α-SMA (α-SMA/β-actin, %)” value amounted to 32.42%. As for “His-(D-Ser)-Gln-Gly-Thr-Phe-Thr-Ser-Asp-Tyr-Ser-Lys-Tyr-Leu-Asp-Glu-Lys-Ala-Ala-Lys(PEG2-PEG2-γGlu-CO(CH2)16CH3)-Glu-Phe-Ile-Glu-Trp-Leu-Leu-Asn-Gly-Gly-Pro-Ser-Ser-Gly-Ala-Pro-Pro-Pro-Ser-NH2 (H[dS]QGTFTSDYSKYLDEKAAK([PEG2′-PEG2′-γGlu-Stearoyl])EFIEWLLNGGPSSGAPPPS-NH2) [Compound 28]”, the figure is 37.62%; as for “His-(D-Ser)-Gln-Gly-Thr-Phe-Thr-Ser-Asp-Tyr-Ser-Lys-Tyr-Leu-Asp-Glu-Lys-Ala-Ala-Lys(PEG2-PEG2-γGlu-CO(CH2)16CO2H)-Glu-Phe-Ile-Glu-Trp-Leu-Leu-Arg-Ala-NH2 (H[dS]QGTFTSDYSKYLDEKAAK([PEG2′-PEG2′-γGlu-C18 diacid])EFIEWLLRA-NH2) [Compound 18]”, 45.60%; as for “His-(D-Ser)-Gln-Gly-Thr-Phe-Thr-Ser-Asp-Tyr-Ser-Lys-Tyr-Leu-Asp-Glu-Lys-Ala-Ala-Lys(PEG2-PEG2-γGlu-CO(CH2)16CO2H)-Glu-Phe-Ile-Glu-Trp-Leu-Leu-Asn-Gly-Gly-Pro-Ser-Ser-Gly-Ala-Pro-Pro-Pro-Ser-NH2 (H[dS]QGTFTSDYSKYLDEKAAK([PEG2′-PEG2′-γGlu-C18 diacid])EFIEWLLNGGPSSGAPPPS-NH2) [Compound 26]”, 44.44%. Regarding “His-(D-Ser)-Gln-Gly-Thr-Phe-Thr-Ser-Asp-Tyr-Ser-Lys-Tyr-Leu-Asp-Lys(PEG2-PEG2-CO(CH2)14CH3)-Arg-Arg-Ala-Gln-Asp-Phe-Val-Gln-Trp-Leu-Leu-Asn-Thr-Gly-Gly-Pro-Ser-Ser-Gly-Ala-Pro-Pro-Pro-Ser-NH2 (H[dS]QGTFTSDYSKYLDK([PEG2′-PEG2′-Palmitoyl])RRAQDFVQWLLNTGGPSSGAPPPS-NH2) [Compound 42]”, the “Relative expression of α-SMA (α-SMA/β-actin, %)” value is given as 38.11%. In the case of “His-(D-Ser)-Gln-Gly-Thr-Phe-Thr-Ser-Asp-Tyr-Ser-Lys-Tyr-Leu-Asp-Lys(PEG2-PEG2-CO(CH2)16CO2H)-Arg-Arg-Ala-Gla-Asp-Phe-Val-Gln-Trp-Leu-Met-Asn-Thr-Gly-Gly-Pro-Ser-Ser-Gly-Ala-Pro-Pro-Pro-Ser-NH2 (H[dS]QGTFTSDYSKYLDK([PEG2′-PEG2′-C18 diacid])RRAQDFVQWLMNTGGPSSGAPPPS-NH2; also: position 20: name writes Gla, letters give Q) [Compound 35]”, the “Relative expression of α-SMA (α-SMA/β-actin, %)” value was 51.28%. Take “His-(D-Ser)-Gln-Gly-Thr-Phe-Thr-Ser-Asp-Tyr-Ser-Lys-Tyr-Leu-Asp-Lys(PEG2-PEG2-CO(CH2)16CO2H)-Arg-Arg-Ala-Gln-Asp-Phe-Val-Gln-Trp-Leu-Nle-Asn-Thr-Gly-Gly-Pro-Ser-Ser-Gly-Ala-Pro-Pro-Pro-Ser-NH2 (H[dS]QGTFTSDYSKYLDK([PEG2′-PEG2′-C18 diacid])RRAQDFVQWL[Nle]NTGGPSSGAPPPS-NH2) [Compound 41]”: the “Relative expression of α-SMA (α-SMA/β-actin, %)” value came out at 42.10%. Under “His-(D-Ser)-Gln-Gly-Thr-Phe-Thr-Ser-Asp-Tyr-Ser-Lys-Tyr-Leu-Asp-Lys(PEG2-PEG2-γGlu-CO(CH2)16CH3)-Arg-Arg-Ala-Gln-Asp-Phe-Val-Gln-Trp-Leu-Met-Asn-Thr-Gly-Gly-Pro-Ser-Ser-Gly-Ala-Pro-Pro-Pro-Ser-NH2 (H[dS]QGTFTSDYSKYLDK([PEG2′-PEG2′-γGlu-Stearoyl])RRAQDFVQWLMNTGGPSSGAPPPS-NH2) [Compound 36]” stands 42.49%. As for “His-(D-Ser)-Gln-Gly-Thr-Phe-Thr-Ser-Asp-Tyr-Ser-Lys-Tyr-Leu-Asp-Lys(PEG2-PEG2-γGlu-CO(CH2)16CO2H)-Arg-Arg-Ala-Gln-Asp-Phe-Val-Gln-Trp-Leu-Met-Asn-Thr-Gly-Gly-Pro-Ser-Ser-Gly-Ala-Pro-Pro-Pro-Ser-NH2 (H[dS]QGTFTSDYSKYLDK([PEG2′-PEG2′-γGlu-C18 diacid])RRAQDFVQWLMNTGGPSSGAPPPS-NH2) [Compound 34]”, the “Relative expression of α-SMA (α-SMA/β-actin, %)” value is given as 38.18%.

With “His-(D-Ser)-Gln-Gly-Thr-Phe-Thr-Ser-Asp-Tyr-Ser-Lys-Tyr-Leu-Asp-Ser-Lys(PEG2-PEG2-γGlu-CO(CH2)16CH3)-Ala-Ala-His-Asp-Phe-Val-Glu-Trp-Leu-Leu-Arg-Ala-NH2 (H[dS]QGTFTSDYSKYLDSK([PEG2′-PEG2′-γGlu-Stearoyl])AAHDFVEWLLRA-NH2) [Compound 25]”, the “Relative expression of α-SMA (α-SMA/β-actin, %)” value came out at 53.34%. As for “His-(D-Ser)-Gln-Gly-Thr-Phe-Thr-Ser-Asp-Tyr-Ser-Lys-Tyr-Leu-Asp-Ser-Lys(PEG2-PEG2-γGlu-CO(CH2)16CH3)-Ala-Ala-His-Asp-Phe-Val-Glu-Trp-Leu-Leu-Asn-Gly-Gly-Pro-Ser-Ser-Gly-Aln-Pro-Pro-Pro-Ser-NH2 (H[dS]QGTFTSDYSKYLDSK([PEG2′-PEG2′-γGlu-Stearoyl])AAHDFVEWLLNGGPSSGAPPPS-NH2; also: position 35: name writes Aln, letters give A) [Compound 22]”, the figure is 40.56%; as for “His-(D-Ser)-Gln-Gly-Thr-Phe-Thr-Ser-Asp-Tyr-Ser-Lys-Tyr-Leu-Asp-Ser-Lys(PEG2-PEG2-γGlu-CO(CH2)16CO2H)-Ala-Ala-His-Asp-Phe-Val-Glu-Trp-Leu-Leu-Asn-Gly-Gly-Pro-Ser-Ser-Gly-Ala-Pro-Pro-Pro-Ser-NH2 (H[dS]QGTFTSDYSKYLDSK([PEG2′-PEG2′-γGlu-C18 diacid])AAHDFVEWLLNGGPSSGAPPPS-NH2) [Compound 21]”, 37.66%; as for “His-Aib-Gln-Gly-Thr-Phe-Thr-Ser-Asp-Lys(PEG2-PEG2-γGlu-CO(CH2)14CH3)-Ser-Lys-Tyr-Leu-Asp-Aib-Arg-Arg-Ala-Gln-Asp-Phe-Val-Gln-Trp-Leu-Leu-Asp-Gly-Gly-Pro-Ser-Ser-Gly-Ala-Pro-Pro-Pro-Ser-NH2 (H[Aib]QGTFTSDK([PEG2′-PEG2′-γGlu-Palmitoyl])SKYLD[Aib]RRAQDFVQWLLDGGPSSGAPPPS-NH2) [Compound 8]”, 38.25%. As to “His-Aib-Gln-Gly-Thr-Phe-Thr-Ser-Asp-Lys(PEG2-PEG2-γGlu-CO(CH2)14CH3)-Ser-Lys-Tyr-Leu-Asp-Glu-Arg-Arg-Ala-Gln-Asp-Phe-Val-Gln-Trp-Leu-Leu-Asp-Gly-Gly-Pro-Ser-Ser-Gly-Ala-Pro-Pro-Pro-Ser-NH2 (H[Aib]QGTFTSDK([PEG2′-PEG2′-γGlu-Palmitoyl])SKYLDERRAQDFVQWLLDGGPSSGAPPPS-NH2) [Compound 16]”, the “Relative expression of α-SMA (α-SMA/β-actin, %)” value is given as 40.35%. “His-Aib-Gln-Gly-Thr-Phe-Thr-Ser-Asp-Lys(PEG2-PEG2-γGlu-CO(CH2)14CO2H)-Ser-Lys-Tyr-Leu-Asp-Aib-Arg-Arg-Ala-Gln-Asp-Phe-Val-Gln-Trp-Leu-Leu-Asp-Gly-Gly-Pro-Ser-Ser-Gly-Ala-Pro-Pro-Pro-Ser-NH2 (H[Aib]QGTFTSDK([PEG2′-PEG2′-γGlu-C16 diacid])SKYLD[Aib]RRAQDFVQWLLDGGPSSGAPPPS-NH2) [Compound 11]”: the “Relative expression of α-SMA (α-SMA/β-actin, %)” value was found to be 41.78%.

Consider “His-Aib-Gln-Gly-Thr-Phe-Thr-Ser-Asp-Lys(PEG2-PEG2-γGlu-CO(CH2)14CO2H)-Ser-Lys-Tyr-Leu-Asp-Glu-Arg-Arg-Ala-Gln-Asp-Phe-Val-Gln-Trp-Leu-Leu-Asp-Gly-Gly-Pro-Ser-Ser-Gly-Ala-Pro-Pro-Pro-Ser-NH2 (H[Aib]QGTFTSDK([PEG2′-PEG2′-γGlu-C16 diacid])SKYLDERRAQDFVQWLLDGGPSSGAPPPS-NH2) [Compound 13]”, for which the “Relative expression of α-SMA (α-SMA/β-actin, %)” value worked out at 37.93%.

For “His-Aib-Gln-Gly-Thr-Phe-Thr-Ser-Asp-Lys(PEG2-PEG2-γGlu-CO(CH2)16CH3)-Ser-Lys-Tyr-Leu-Asp-Aib-Arg-Arg-Ala-Gln-Asp-Phe-Val-Gln-Trp-Leu-Leu-Asp-Gly-Gly-Pro-Ser-Ser-Gly-Ala-Pro-Pro-Pro-Ser-NH2 (H[Aib]QGTFTSDK([PEG2′-PEG2′-γGlu-Stearoyl])SKYLD[Aib]RRAQDFVQWLLDGGPSSGAPPPS-NH2) [Compound 12]”, the “Relative expression of α-SMA (α-SMA/β-actin, %)” value is 36.99%.
